Experimental data reported in article PMC10187093, “Synthesis, in silico modelling, and in vitro biological evaluation of substituted pyrazole derivatives as potential anti-skin cancer, anti-tyrosinase, and antioxidant agents” (Journal of Enzyme Inhibition and Medicinal Chemistry, 2023).

Test system: SK-MEL-28
Assay: MTT antiproliferative/cytotoxicity assay, SK-MEL-28
Type: cell-based, human
Settings: Homo sapiens, SK-MEL-28, 48 h, melanoma, MTT, 48 h; read-out: IC50 SKMEL-28
Description: (§1) Human-derived GFP-expressing melanoma A375 and epidermoid carcinoma A431 cell lines were purchased from Angio-Proteomie (Boston, MA). Human melanoma carcinoma SK-MEL-28 and human immortalised keratinocytes (HaCaT) cell lines were acquired from American Type Culture Collection (ATCC; Manassas, VA). Human cutaneous SCC cell line SCC-12[192] was generously provided by Dr. James G. Rheinwald to Dr. Tatiana Efimova. Except SK-MEL-28, which was cultured in an RPMI-1640 medium supplemented with 5% FBS, all other human immortalised cell lines were grown and maintained in DMEM containing varying percentages of FBS; 5% FBS for A431, SCC-12, and HaCaT lines, and 10% FBS for A375. All culture media were routinely supplemented with 1% PEST 100X (100 U/mL penicillin, 100 μg/mL streptomycin), and cells were cultured in incubators maintained at 37 °C under an atmosphere of 95% humidity, 20% O2, and 5% CO2. The growth media of incubated cells were changed every 2–3 days until they attained 70–80% confluence, after which they were sub-cultured for experiments and re-passaging. DMSO was used as the vehicle to prepare a 10 mM stock solution of the test compounds.
(§2) Stock solutions (10 mM) were prepared by dissolving each compound to be screened in DMSO. From these stock solutions, escalating concentrations were prepared using the corresponding cell growth media as a diluent, and the cells (65–75% confluent) were treated with (0–40 µM) or without the drug in sext- to octuplicate and incubated for 48 h. All treatment protocols and controls were prepared as previously described.
(§3) The potency and cytotoxicity of the test compounds against two cutaneous melanoma (A375 and SK-MEL-28) and two non-melanoma (A431 and SCC-12) SC cell lines in addition to a control immortalised normal human epidermal keratinocytes (HaCaT) cell line were assessed by MTT assay as previously described.
With `c1ccc(-c2cc(-c3ccccc3)n(-c3ccccc3)n2)cc1` [P13, 1,3,5-Triphenyl-1H-pyrazole] the IC50 was 154 ± 2.9 µM.
Work on `Cc1nn(-c2ccccc2)c2c1CCC2` [P8, 3-Methyl-1-phenyl-1,4,5,6-tetrahydrocyclopenta[c]pyrazole] yielded an IC50 of 181 ± 4.7 µM.
`O=C1CC(c2ccc(Br)cc2)=NN1c1ccc(C(F)(F)F)cc1` [P23] showed an IC50 of 27.4 ± 2.3 µM.

Same assay, conditions: Homo sapiens, SK-MEL-28; melanoma, MTT, 48 h; read-out: IC50 SKMEL-28
For `O=C1CC(c2ccccc2)=NN1c1ccccc1` [P21], the IC50 was 42.7 ± 4 µM.

Test system: A375
Assay: MTT antiproliferative/cytotoxicity assay, A375
Type: cell-based, human
Settings: Homo sapiens, A-375, 48 h, melanoma, MTT, 48 h; read-out: IC50 A375
Description: as §1, §2, §3
For `O=C1CC(c2ccccc2)=NN1c1ccccc1` [P21], the IC50 was 67.8 ± 2.3 µM.
Work on `c1ccc(-c2cc(-c3ccccc3)n(-c3ccccc3)n2)cc1` [P13, 1,3,5-Triphenyl-1H-pyrazole] yielded an IC50 of 93.4 ± 6.4 µM.
With `Cc1nn(-c2ccccc2)c2c1CCC2` [P8, 3-Methyl-1-phenyl-1,4,5,6-tetrahydrocyclopenta[c]pyrazole] the IC50 was 55.3 ± 3.8 µM.
With `O=C1CC(c2ccc(Br)cc2)=NN1c1ccc(C(F)(F)F)cc1` [P23] the IC50 was 31.2 ± 1.5 µM.

Test system: not listed separately
Assay: DPPH free radical scavenging assay
Settings: 1 mM
Description: An initial screen was done of all 25 derivatives at a concentration of 1 mM. […] Methanol was used as the diluent, and 100 µL of DPPH (200 µM; Sigma-Aldrich, St. Louis, MO) was added to each well. […] The scavenging capacity (SC) was calculated as SC% = ((ΔAcontrol – ΔAsample)/ΔAcontrol) × 100%, where ΔAcontrol was the absorbance of the reagent blank, and ΔAsample was the absorbance of the test samples. The control contained all reagents except the compounds, and all tests were performed in triplicate. Quercetin served as a positive control. The DPPH methanolic solution (1 mL) mixed with DMSO (5 µL) served as a negative control.
For `O=C1CC(c2ccccc2)=NN1c1ccccc1` [P21], the “Percent Scavenging (DPPH)” value was 73.25%.
With `c1ccc(-c2cc(-c3ccccc3)n(-c3ccccc3)n2)cc1` [P13, 1,3,5-Triphenyl-1H-pyrazole] the “Percent Scavenging (DPPH)” value was 19.44%.
For `Cc1nn(-c2ccccc2)c2c1CCC2` [P8, 3-Methyl-1-phenyl-1,4,5,6-tetrahydrocyclopenta[c]pyrazole], the “Percent Scavenging (DPPH)” value was -2.57%.
In the case of `O=C1CC(c2ccc(Br)cc2)=NN1c1ccc(C(F)(F)F)cc1` [P23], the “Percent Scavenging (DPPH)” value is reported as 77.61%.

Same assay, conditions: N.A. = No Activity; > 1000 = not biologically relevant; read-out: IC50 Value, DPPH antioxidant activity (Table S4)
`O=C1CC(c2ccccc2)=NN1c1ccccc1` [P21] showed an IC50 of 354 µM.
With `c1ccc(-c2cc(-c3ccccc3)n(-c3ccccc3)n2)cc1` [P13, 1,3,5-Triphenyl-1H-pyrazole] the IC50 was greater than 1000 µM.
`O=C1CC(c2ccc(Br)cc2)=NN1c1ccc(C(F)(F)F)cc1` [P23] gave an IC50 of 196 µM.

Test system: GFP-A431
Assay: MTT antiproliferative/cytotoxicity assay, A431
Type: cell-based, human
Settings: Homo sapiens, A-431, 48 h, non-melanoma, MTT, 48 h; read-out: IC50 GFP-A431
Description: (§4) Human-derived GFP-expressing melanoma A375 and epidermoid carcinoma A431 cell lines were purchased from Angio-Proteomie (Boston, MA). Human melanoma carcinoma SK-MEL-28 and human immortalised keratinocytes (HaCaT) cell lines were acquired from American Type Culture Collection (ATCC; Manassas, VA). […] The growth media of incubated cells were changed every 2–3 days until they attained 70–80% confluence, after which they were sub-cultured for experiments and re-passaging. DMSO was used as the vehicle to prepare a 10 mM stock solution of the test compounds.
(§5) Stock solutions (10 mM) were prepared by dissolving each compound to be screened in DMSO.
Compound `c1ccc(-c2cc(-c3ccccc3)n(-c3ccccc3)n2)cc1` [P13, 1,3,5-Triphenyl-1H-pyrazole] has an IC50 of 181 ± 4.7 µM.
With `Cc1nn(-c2ccccc2)c2c1CCC2` [P8, 3-Methyl-1-phenyl-1,4,5,6-tetrahydrocyclopenta[c]pyrazole] the IC50 was 72.2 ± 5.2 µM.
`O=C1CC(c2ccc(Br)cc2)=NN1c1ccc(C(F)(F)F)cc1` [P23] gave an IC50 of 23.9 ± 1 µM.

Same assay, conditions: Homo sapiens, A-431; non-melanoma, MTT, 48 h; read-out: IC50 GFP-A431
`O=C1CC(c2ccccc2)=NN1c1ccccc1` [P21] showed an IC50 of 58.6 ± 2.3 µM.

Same assay, conditions: IC50 HaCaT divided by IC50 A431
With `O=C1CC(c2ccc(Br)cc2)=NN1c1ccc(C(F)(F)F)cc1` [P23] the “selectivity index (SI) A431” value was 1.7.

Test system: SCC-12
Assay: MTT antiproliferative/cytotoxicity assay, SCC-12
Type: cell-based, human
Settings: Homo sapiens, SCC12, 48 h, non-melanoma, MTT, 48 h; read-out: IC50 SCC-12
Description: as §4, §5
For `c1ccc(-c2cc(-c3ccccc3)n(-c3ccccc3)n2)cc1` [P13, 1,3,5-Triphenyl-1H-pyrazole], the IC50 was 52.8 ± 2.2 µM.
Work on `Cc1nn(-c2ccccc2)c2c1CCC2` [P8, 3-Methyl-1-phenyl-1,4,5,6-tetrahydrocyclopenta[c]pyrazole] yielded an IC50 of 120 ± 8.5 µM.
With `O=C1CC(c2ccc(Br)cc2)=NN1c1ccc(C(F)(F)F)cc1` [P23] the IC50 was 21.7 ± 1.9 µM.

Same assay, conditions: Homo sapiens, SCC12; non-melanoma, MTT, 48 h; read-out: IC50 SCC-12
Compound `O=C1CC(c2ccccc2)=NN1c1ccccc1` [P21] has an IC50 of 37.8 ± 3.2 µM.

Same assay, conditions: IC50 HaCaT divided by IC50 SCC-12
For `O=C1CC(c2ccc(Br)cc2)=NN1c1ccc(C(F)(F)F)cc1` [P23], the “selectivity index (SI) SCC-12” value was 1.9.

Test system: HaCaT
Assay: MTT cytotoxicity assay, noncancerous HaCaT keratinocytes
Type: cell-based, human
Settings: Homo sapiens, HaCaT; control noncancerous keratinocytes, MTT, 48 h; read-out: IC50 HaCaT
Description: as §1, §2, §3
For `O=C1CC(c2ccccc2)=NN1c1ccccc1` [P21], the IC50 was 50.1 ± 6.5 µM.
`c1ccc(-c2cc(-c3ccccc3)n(-c3ccccc3)n2)cc1` [P13, 1,3,5-Triphenyl-1H-pyrazole] gave an IC50 of 91.6 ± 4.1 µM.
Work on `Cc1nn(-c2ccccc2)c2c1CCC2` [P8, 3-Methyl-1-phenyl-1,4,5,6-tetrahydrocyclopenta[c]pyrazole] yielded an IC50 of 44.5 ± 1.4 µM.
`O=C1CC(c2ccc(Br)cc2)=NN1c1ccc(C(F)(F)F)cc1` [P23] gave an IC50 of 40.5 ± 1.5 µM.

Biological target: T1, mushroom tyrosinase (Agaricus bisporus, UniProt C7FF04)
T1 construct: purchased Sigma-Aldrich Chemical Company (St. Louis, MO) and MP Biomedicals (Irvine, CA)
T1 sequence (C7FF04 1-392 limits assumed): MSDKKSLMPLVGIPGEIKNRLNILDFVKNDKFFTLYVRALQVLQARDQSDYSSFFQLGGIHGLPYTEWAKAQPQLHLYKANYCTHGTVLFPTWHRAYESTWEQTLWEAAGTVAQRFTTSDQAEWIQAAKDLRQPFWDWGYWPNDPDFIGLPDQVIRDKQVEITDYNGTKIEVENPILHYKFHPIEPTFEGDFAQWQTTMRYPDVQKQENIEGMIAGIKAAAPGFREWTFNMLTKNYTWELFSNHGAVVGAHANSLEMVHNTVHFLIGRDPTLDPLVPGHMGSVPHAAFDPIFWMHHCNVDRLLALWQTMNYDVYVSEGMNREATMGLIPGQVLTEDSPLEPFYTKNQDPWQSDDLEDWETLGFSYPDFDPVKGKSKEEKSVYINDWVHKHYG
Assay: In vitro mushroom tyrosinase inhibition assay
Type: biochemical
Settings: 500 µM, single-concentration screen; read-out: % Inhibition of tyrosinase
Description: The anti-tyrosinase potential of all the synthesised derivatives was determined by an enzymatic tyrosinase inhibition assay based on their ability to inhibit the substrate, L-tyrosine, from binding to the tyrosinase enzyme. […] Test samples were dissolved in DMSO at a concentration of 10 mM and then diluted to different concentrations with phosphate buffer (0.1 M, pH 6.8). Each well contained 40 µL of the sample with 80 µL of phosphate buffer solution (0.1 M, pH 6.8), 40 µL of tyrosinase enzyme (100 units/mL), and 40 µL L-tyrosine (2.5 mM). The mixture was incubated for 30 min at room temperature, and absorbance was measured at 490 nm. Each sample was accompanied by a sample blank containing all components except tyrosinase. […] The percentage of tyrosinase inhibition was calculated as follows: ((ΔAcontrol – ΔAsample)/ΔAcontrol) × 100. IC50 values denoted the sample concentration required to inhibit 50% tyrosinase activity (Table S1).
`c1ccc(-c2cc(-c3ccccc3)n(-c3ccccc3)n2)cc1` [P13, 1,3,5-Triphenyl-1H-pyrazole] gave an inhibition at 500 µM of 7.66%.
`Cc1nn(-c2ccccc2)c2c1CCC2` [P8, 3-Methyl-1-phenyl-1,4,5,6-tetrahydrocyclopenta[c]pyrazole] gave an inhibition at 500 µM of 67.2 ± 0.2%.
With `O=C1CC(c2ccc(Br)cc2)=NN1c1ccc(C(F)(F)F)cc1` [P23] the inhibition at 500 µM was 37.6%.

Same assay, conditions: > 500 = not biologically relevant; read-out: IC50 Value, mushroom tyrosinase inhibition (Table S1)
Compound `c1ccc(-c2cc(-c3ccccc3)n(-c3ccccc3)n2)cc1` [P13, 1,3,5-Triphenyl-1H-pyrazole] has an IC50 greater than 500 µM.
`Cc1nn(-c2ccccc2)c2c1CCC2` [P8, 3-Methyl-1-phenyl-1,4,5,6-tetrahydrocyclopenta[c]pyrazole] gave an IC50 of 190 µM.
For `O=C1CC(c2ccc(Br)cc2)=NN1c1ccc(C(F)(F)F)cc1` [P23], the IC50 was greater than 500 µM.

Same assay, conditions: IC50 Value, mushroom tyrosinase inhibition (Table S1), > 500 = not biologically relevant
For `O=C1CC(c2ccccc2)=NN1c1ccccc1` [P21], the IC50 was 295 µM.

Same assay, conditions: read-out: % Inhibition of tyrosinase, 500 µM, single-concentration screen
Compound `O=C1CC(c2ccccc2)=NN1c1ccccc1` [P21] has an inhibition at 500 µM of 88.9 ± 0.4%.
